The test system of one data set is CHO-K1. In words: Counterscreen for antagonists of the orexin 1 receptor (OX1R; HCRTR1): Homogeneous time resolved fluorescence (HTRF)-based cell-based dose response assay to identify antagonists of the parental CHO-K1 cell line. [Related pubchem assays (depositor defined):AID434989, AID435008, AID463079, AID485270, AID492963, AID492964, AID492965, AID493232, AID504699, AID504701]. Type of data set: functional. Conditions: Cricetulus griseus. Background: The purpose of a counterscreen is to sort out artefacts and off-target activity.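 Also: potency for inhibition of ATP-stimulated IP1 production as antagonists.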

Data set [1] addresses Peroxisome proliferator-activated receptor gamma/Nuclear receptor coactivator 1 (Homo sapiens, UniProt P37231). The experiment in a line: TR-FRET dose response biochemical High Throughput Screening assay for agonists of the steroid receptor coactivator 1 (SRC-1) recruitment by the peroxisome proliferator-activated receptor gamma (PPAR gamma): non-selective agonists. [Related pubchem assays (depositor defined):AID1300, AID1808, AID504735, AID631]. Type of data set: protein assay. For orientation: Time-resolved FRET reads energy transfer from a long-lived donor to a nearby acceptor.

Data set [2] deals with T1, Orexin receptor type 2 (Homo sapiens, UniProt O43614).
T1 sequence (O43614 whole entry): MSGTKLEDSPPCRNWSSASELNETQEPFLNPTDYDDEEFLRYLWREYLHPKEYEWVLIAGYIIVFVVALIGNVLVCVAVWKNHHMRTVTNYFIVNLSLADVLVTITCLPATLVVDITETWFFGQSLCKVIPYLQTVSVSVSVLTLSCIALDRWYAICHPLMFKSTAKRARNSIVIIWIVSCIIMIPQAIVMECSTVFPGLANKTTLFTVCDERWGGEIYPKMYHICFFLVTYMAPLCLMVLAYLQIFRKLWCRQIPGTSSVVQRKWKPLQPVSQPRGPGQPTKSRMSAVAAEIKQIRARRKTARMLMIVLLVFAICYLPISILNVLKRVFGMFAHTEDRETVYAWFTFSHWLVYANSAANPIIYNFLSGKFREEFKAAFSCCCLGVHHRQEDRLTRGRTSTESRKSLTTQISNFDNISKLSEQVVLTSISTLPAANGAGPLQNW
In words: Counterscreen assay for antagonists of the orexin 1 receptor (OX1R; HCRTR1): Homogeneous Time Resolved Fluorescence (HTRF)-based cell-based dose response assay for antagonists of the orexin 2 receptor (OX2R; HCRTR2), run by assay provider. Type of data set: functional.

Data set [3] concerns the target T2, Orexin/Hypocretin receptor type 1 (Homo sapiens, UniProt O43613).
T2 sequence (O43613 whole entry): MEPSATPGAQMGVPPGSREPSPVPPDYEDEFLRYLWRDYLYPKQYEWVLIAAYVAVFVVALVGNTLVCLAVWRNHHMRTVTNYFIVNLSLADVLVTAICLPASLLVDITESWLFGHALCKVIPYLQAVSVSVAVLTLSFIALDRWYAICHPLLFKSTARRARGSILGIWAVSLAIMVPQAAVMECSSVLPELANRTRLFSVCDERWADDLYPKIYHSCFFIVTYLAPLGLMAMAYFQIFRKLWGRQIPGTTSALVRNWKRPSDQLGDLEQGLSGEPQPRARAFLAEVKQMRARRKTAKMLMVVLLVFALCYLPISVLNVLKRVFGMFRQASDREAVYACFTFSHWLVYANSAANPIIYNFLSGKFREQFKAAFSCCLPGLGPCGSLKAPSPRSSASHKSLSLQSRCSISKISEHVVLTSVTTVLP
The experiment in a line: Fluorescence-based cell-based high throughput dose response assay for antagonists of the orexin 1 receptor (OX1R; HCRTR1). [Related pubchem assays (depositor defined):AID434989, AID435008, AID463079, AID485270, AID492963, AID492964, AID492965, AID493232, AID504717, AID504718]. Format: functional.

In data set [4] the target is Peroxisome proliferator-activated receptor gamma/Nuclear receptor coactivator 2 (Homo sapiens, UniProt P37231). The experiment in a line: TR-FRET dose response biochemical High Throughput Screening assay for agonists of the steroid receptor coactivator 2 (SRC-2) recruitment by the peroxisome proliferator-activated receptor gamma (PPAR gamma): non-selective agonists. [Related pubchem assays: 1297, 1032 ]. Format: functional.
Peroxisome proliferator-activated receptor gamma/Nuclear receptor coactivator 2, sequence (P37231 whole entry): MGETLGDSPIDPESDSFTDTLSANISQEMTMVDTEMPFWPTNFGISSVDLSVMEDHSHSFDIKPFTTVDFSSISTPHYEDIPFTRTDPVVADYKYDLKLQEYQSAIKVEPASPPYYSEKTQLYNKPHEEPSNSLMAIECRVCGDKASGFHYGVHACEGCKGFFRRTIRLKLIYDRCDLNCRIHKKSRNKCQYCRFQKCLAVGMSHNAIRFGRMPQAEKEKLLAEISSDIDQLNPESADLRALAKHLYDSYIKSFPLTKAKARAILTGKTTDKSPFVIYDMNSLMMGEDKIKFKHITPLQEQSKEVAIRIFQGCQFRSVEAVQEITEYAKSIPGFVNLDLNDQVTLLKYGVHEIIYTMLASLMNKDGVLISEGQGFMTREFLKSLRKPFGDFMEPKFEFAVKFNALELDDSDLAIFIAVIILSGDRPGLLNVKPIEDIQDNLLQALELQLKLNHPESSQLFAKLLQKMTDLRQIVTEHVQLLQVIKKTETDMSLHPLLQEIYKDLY
Peroxisome proliferator-activated receptor gamma/Nuclear receptor coactivator 2, sequence (Q15596 whole entry, further chain): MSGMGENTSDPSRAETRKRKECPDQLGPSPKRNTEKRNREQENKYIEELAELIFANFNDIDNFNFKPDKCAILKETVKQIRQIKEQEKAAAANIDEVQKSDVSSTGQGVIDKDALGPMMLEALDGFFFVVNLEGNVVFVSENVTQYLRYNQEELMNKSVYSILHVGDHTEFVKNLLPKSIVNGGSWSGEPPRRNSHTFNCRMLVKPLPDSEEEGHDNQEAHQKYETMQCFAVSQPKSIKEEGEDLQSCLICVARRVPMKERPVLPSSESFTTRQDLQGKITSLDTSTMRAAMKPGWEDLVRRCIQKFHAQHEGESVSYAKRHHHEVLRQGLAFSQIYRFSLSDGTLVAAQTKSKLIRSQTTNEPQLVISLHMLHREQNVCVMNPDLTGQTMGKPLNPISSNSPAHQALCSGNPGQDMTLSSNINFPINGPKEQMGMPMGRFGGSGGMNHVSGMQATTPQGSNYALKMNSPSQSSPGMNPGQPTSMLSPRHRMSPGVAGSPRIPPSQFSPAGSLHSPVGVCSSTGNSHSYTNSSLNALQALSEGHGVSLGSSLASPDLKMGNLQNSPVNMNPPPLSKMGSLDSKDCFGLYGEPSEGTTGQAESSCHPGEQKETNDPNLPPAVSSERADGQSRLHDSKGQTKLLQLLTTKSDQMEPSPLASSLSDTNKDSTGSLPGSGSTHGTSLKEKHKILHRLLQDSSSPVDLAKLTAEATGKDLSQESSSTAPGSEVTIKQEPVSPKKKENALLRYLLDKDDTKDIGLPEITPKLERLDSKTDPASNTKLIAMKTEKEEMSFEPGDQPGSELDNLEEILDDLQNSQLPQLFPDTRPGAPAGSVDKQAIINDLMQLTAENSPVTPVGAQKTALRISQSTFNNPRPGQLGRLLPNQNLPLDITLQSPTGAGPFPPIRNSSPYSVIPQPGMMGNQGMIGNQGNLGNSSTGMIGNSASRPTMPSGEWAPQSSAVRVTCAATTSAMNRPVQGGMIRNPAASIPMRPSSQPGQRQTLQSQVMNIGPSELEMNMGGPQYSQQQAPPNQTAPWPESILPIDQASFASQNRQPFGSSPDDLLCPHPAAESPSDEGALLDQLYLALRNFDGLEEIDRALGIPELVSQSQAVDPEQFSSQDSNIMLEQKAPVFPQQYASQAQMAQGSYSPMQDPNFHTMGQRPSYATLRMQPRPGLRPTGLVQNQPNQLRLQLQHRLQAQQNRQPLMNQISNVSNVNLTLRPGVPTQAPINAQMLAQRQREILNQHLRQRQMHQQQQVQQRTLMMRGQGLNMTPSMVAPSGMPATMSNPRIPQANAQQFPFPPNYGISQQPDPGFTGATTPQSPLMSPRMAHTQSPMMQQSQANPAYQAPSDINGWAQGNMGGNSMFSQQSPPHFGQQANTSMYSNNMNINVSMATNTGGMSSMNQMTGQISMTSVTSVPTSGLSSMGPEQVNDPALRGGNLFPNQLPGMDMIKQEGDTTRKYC

For data set [5], the target named is Photoreceptor-specific nuclear receptor (Homo sapiens, UniProt Q9Y5X4). In words: ligands suppressing NR2E3 nuclear receptor activity – biochemical, TR-FRET, dose response (AID 463256). Type of data set: functional.
Photoreceptor-specific nuclear receptor, sequence (Q9Y5X4 whole entry): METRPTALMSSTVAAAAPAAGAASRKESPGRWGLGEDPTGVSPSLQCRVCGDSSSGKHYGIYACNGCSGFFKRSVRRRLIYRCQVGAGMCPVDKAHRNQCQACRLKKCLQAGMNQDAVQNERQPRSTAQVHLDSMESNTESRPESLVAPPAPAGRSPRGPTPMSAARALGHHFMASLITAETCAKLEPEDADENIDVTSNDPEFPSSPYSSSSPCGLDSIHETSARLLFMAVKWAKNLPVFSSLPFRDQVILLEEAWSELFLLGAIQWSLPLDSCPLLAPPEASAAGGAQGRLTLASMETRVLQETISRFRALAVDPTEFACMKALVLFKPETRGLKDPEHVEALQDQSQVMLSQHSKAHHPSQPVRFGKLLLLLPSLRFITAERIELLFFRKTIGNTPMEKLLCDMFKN
Data set [6] in a line: Counterscreen for antagonists of the orexin 1 receptor (OX1R; HCRTR1): Fluorescence-based cell-based high throughput dose response assay to identify antagonists of the parental CHO cell line. [Related pubchem assays (depositor defined):AID434989, AID435008, AID463079, AID485270, AID492963, AID492964, AID492965, AID493232, AID504699, AID504701]. Type of data set: functional.

Data set [7] has as its target T1, Orexin receptor type 2. In words: Counterscreen assay for antagonists of the orexin 1 receptor (OX1R; HCRTR1): Fluorescence-based cell-based dose response assay for antagonists of the orexin 2 receptor (OX2R; HCRTR2), run by assay provider. Type of data set: functional.
Data set [8] addresses T2, Orexin/Hypocretin receptor type 1. In words: Homogeneous Time Resolved Fluorescence (HTRF)-based cell-based high throughput dose response assay for antagonists of the orexin 1 receptor (OX1R; HCRTR1). [Related pubchem assays (depositor defined):AID434989, AID435008, AID463079, AID485270, AID492963, AID492964, AID492965, AID493232, AID504717, AID504718]. Type of data set: functional.

The target of data set [9] is Peroxisome proliferator-activated receptor gamma/Nuclear receptor corepressor 2 (Homo sapiens, UniProt P37231+Q9Y618). In words: Counterscreen for NR2E3 inverse agonists: TR-FRET-based biochemical high throughput dose response assay to identify inverse agonists of the interaction between peroxisome proliferator-activated receptor gamma (PPARg) and nuclear receptor co-repressor 2 (NCOR2). Type of data set: functional.

Data set [10] deals with Peroxisome proliferator-activated receptor gamma/Nuclear receptor coactivator 3 (Homo sapiens, UniProt P37231). In words: TR-FRET dose response biochemical High Throughput Screening assay for agonists of the steroid receptor coactivator 3 (SRC-3) recruitment by the peroxisome proliferator-activated receptor gamma (PPAR gamma): non-selective agonists. [Related pubchem assays: 1301 (Confirmation screen.), 1048 (Primary screen.)]. Format: functional.

Data set [11] addresses T3, Cytochrome P450 2C9 (Homo sapiens, UniProt P11712).
The target of the next data set is Cytochrome P450 3A4 (Homo sapiens, UniProt P08684).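 Also: CYP3A4 tested as one member of a cytochrome P450 panel screen.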
Cytochrome P450 3A4, sequence (P08684 whole entry): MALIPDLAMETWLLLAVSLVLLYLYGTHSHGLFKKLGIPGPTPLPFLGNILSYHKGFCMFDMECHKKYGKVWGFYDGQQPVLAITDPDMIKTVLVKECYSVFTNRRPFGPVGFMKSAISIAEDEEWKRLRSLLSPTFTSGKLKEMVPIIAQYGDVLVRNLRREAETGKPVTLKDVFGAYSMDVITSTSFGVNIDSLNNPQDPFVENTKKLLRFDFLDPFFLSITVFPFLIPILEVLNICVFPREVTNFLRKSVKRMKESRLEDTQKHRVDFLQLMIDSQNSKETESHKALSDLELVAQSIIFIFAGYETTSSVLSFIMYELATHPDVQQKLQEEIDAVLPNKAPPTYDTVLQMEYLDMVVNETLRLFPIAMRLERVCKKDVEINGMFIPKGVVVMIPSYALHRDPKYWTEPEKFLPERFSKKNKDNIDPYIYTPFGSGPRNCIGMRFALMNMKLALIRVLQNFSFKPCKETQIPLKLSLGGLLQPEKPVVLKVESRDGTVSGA
Another data set concerns the target Cytochrome P450 2D6 (Homo sapiens, UniProt P10635).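 Also: CYP2D6 member of a cytochrome P450 panel assay.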
Another data set addresses CAAX prenyl protease 1 (Saccharomyces cerevisiae S288c, UniProt P47154). The experiment in a line: yeast CAAX protease Ste24 inhibition – biochemical, S. cerevisiae, plate reader, cherry-pick, dose response (AID 488815).
For a further data set, the target named is Phospholipase A2 (Homo sapiens, UniProt P04054). In words: phospholipase A2 activity inhibition – biochemical, set 2, counter-screen for ATG4B inhibitor project, dose response (AID 588586). Format: functional.
Phospholipase A2, sequence (P04054 whole entry): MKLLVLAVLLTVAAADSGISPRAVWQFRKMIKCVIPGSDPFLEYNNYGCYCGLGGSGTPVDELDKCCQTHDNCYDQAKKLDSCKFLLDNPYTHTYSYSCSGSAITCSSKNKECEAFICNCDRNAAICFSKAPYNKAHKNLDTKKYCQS
The subject of data set [12] is BJ. The experiment in a line: BJ-TERT fibroblast viability loss – cell-based, RAS-independent, luminescence, dose response (AID 1933). Type of data set: functional. As to conditions: Homo sapiens.
The target in another data set is T4, Cysteine protease ATG4B (Homo sapiens, UniProt Q9Y4P1).
T4 sequence (Q9Y4P1 whole entry): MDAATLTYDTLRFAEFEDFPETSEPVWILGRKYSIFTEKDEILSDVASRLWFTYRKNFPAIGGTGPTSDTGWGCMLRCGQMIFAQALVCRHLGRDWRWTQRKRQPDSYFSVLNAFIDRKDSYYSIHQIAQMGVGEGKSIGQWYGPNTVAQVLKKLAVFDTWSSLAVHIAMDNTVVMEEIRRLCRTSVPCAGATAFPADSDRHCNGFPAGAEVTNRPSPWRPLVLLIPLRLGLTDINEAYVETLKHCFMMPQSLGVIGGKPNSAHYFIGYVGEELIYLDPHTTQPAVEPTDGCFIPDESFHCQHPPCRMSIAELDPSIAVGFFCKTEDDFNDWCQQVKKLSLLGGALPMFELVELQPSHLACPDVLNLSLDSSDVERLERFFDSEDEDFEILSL
In words: autophagin-1 cysteine protease inhibition – biochemical, fluorescence, set 2, dose response (AID 588584). Type of data set: functional.

Data set [13] relates to BJ. The experiment in a line: BJ-TERT-LT-ST fibroblast viability loss – cell-based, RAS-independent, luminescence, dose response (AID 1935).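 Also: BJ fibroblasts immortalized with TERT plus LT and ST oncogenes.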 Conditions: Homo sapiens. Type of data set: functional.
Data set [14] has as its system BJ. In words: cells. Type of data set: functional, cell-based. Conditions: Homo sapiens.
Data set [15] can be described thus: DRD fibroblast viability loss – cell-based, non-viral oncogenic, luminescence, dose response (AID 1934). As to conditions: Homo sapiens. Format: functional.
Data set [16] addresses T3, Cytochrome P450 2C9. This is another data set of the same source.

The values below come from ChEMBL document CHEMBL1201862, “PubChem BioAssay data set” (2004).

Broadly, the IC50 is the concentration at which inhibition is half-maximal. The EC50 is the concentration needed to bring the measured effect to its halfway point. By AC50 is commonly meant the midpoint of the concentration-response curve, whichever way the signal moves.

The source made the active and inactive calls. Bounds are passed on as bounds.

T3 sequence (P11712 whole entry): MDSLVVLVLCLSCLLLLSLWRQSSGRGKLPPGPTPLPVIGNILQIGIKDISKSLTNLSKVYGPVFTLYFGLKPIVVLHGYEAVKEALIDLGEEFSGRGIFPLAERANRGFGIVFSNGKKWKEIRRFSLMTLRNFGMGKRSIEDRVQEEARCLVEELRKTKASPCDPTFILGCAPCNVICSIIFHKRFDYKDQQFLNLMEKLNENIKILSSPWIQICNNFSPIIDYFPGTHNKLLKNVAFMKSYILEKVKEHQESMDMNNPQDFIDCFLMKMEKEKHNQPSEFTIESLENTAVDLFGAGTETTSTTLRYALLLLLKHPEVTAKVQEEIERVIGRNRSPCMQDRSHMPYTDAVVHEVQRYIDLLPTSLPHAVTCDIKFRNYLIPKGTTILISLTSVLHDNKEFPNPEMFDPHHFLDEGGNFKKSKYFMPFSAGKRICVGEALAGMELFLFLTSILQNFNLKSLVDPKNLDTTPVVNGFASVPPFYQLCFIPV
Cytochrome P450 2D6, sequence (P10635 whole entry): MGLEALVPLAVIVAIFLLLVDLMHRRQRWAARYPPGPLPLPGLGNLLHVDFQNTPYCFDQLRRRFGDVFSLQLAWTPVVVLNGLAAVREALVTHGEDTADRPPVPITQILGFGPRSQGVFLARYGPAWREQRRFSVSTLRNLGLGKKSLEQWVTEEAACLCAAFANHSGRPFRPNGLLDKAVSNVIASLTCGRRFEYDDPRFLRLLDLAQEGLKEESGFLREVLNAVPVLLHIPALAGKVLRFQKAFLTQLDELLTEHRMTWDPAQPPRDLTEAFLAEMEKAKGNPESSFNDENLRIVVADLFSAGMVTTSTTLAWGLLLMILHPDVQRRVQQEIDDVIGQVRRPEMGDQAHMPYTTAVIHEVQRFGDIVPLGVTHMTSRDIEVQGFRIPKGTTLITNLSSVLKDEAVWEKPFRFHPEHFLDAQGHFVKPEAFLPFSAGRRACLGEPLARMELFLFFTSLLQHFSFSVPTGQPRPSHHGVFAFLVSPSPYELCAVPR
CAAX prenyl protease 1, sequence (P47154 whole entry): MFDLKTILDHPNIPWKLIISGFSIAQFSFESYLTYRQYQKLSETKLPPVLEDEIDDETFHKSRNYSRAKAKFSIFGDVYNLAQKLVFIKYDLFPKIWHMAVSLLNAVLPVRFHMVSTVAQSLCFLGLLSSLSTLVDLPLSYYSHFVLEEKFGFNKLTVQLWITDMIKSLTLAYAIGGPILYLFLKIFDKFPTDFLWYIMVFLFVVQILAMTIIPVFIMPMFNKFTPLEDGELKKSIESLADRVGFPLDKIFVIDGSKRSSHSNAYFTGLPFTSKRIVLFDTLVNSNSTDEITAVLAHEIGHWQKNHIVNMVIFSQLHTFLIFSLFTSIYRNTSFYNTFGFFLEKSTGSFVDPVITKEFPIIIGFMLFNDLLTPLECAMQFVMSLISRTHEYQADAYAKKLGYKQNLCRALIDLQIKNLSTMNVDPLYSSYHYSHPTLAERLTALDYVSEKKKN

Turning to `NS(=O)(=O)c1ccc(CNC(=O)c2cc(-c3ccccn3)nc3ccc(Cl)cc23)cc1`, the IC50 with CHO-K1 was > 66.2 µM (inactive); on Orexin receptor type 2 [2] it was > 50 µM (inactive); in data set [3] it was > 49.7 µM (inactive); in data set [5], > 4.43 µM (active); in data set [6] it was > 49.7 µM (inactive); at Orexin receptor type 2 [7], 30.1 µM (inactive). Moreover, the IC50 in data set [8] was 2.46 µM (active); in data set [9] it was > 39.9 µM (not active). Also, the EC50 is 6.13 µM (active) in data set [1], 5.82 µM (active) in data set [4] and 17.6 µM (not active) in [10].
For the compound `CCOc1ccccc1Oc1coc2cc(OC)ccc2c1=O`, at Cytochrome P450 2C9 [11], the AC50 entry was “inconclusive”.
On the same count and under the same terms, with `COc1ccccc1C(=O)Nc1cc2c(ccc3ccccc32)oc1=O` the entry was “inconclusive”.
Consider `Br/C(=N\N=c1/nn[nH][nH]1)c1ccncc1`, for which the AC50 was 5.01 µM (inconclusive) on Cytochrome P450 3A4 and “inconclusive” on Cytochrome P450 2D6.
As to `Cc1cc(C)cc(N2CC(=O)C(c3nc(O)c4ccccc4n3)=C2N)c1`, the AC50 at CAAX prenyl protease 1 was 14.7 µM (active).
On the same count and under the same terms, with `COc1cc(OC)cc(-c2ncc3ccccn23)c1` the figure was 5.47 µM (active).
As to `CC1=Nc2cc(C(=O)NCc3ccco3)ccc2Sc2ccc(C)cc21`, the IC50 at Phospholipase A2 is 74.1 µM (inactive); at Cysteine protease ATG4B it was 77.5 µM (inactive). Also, the EC50 in the data set with BJ [12] was 2.33 µM (inconclusive); in the data set with BJ [13] it was 1.95 µM (active); with BJ [14], 2.76 µM (active); in [15] it was 2.73 µM (inconclusive).
In the case of `CC(C)c1ccc(C(O)(C(=O)O)c2ccc(C(C)C)cc2)cc1`, the AC50 result at Cytochrome P450 2D6 is “inconclusive”; at Cytochrome P450 2C9 [16] it was 3.98 µM (inconclusive).
